This is an account of results in patent US10681909B2, “Herbicidal triazoles” (FMC Corporation, priority 2014, dated 2020).

Assay [1] relates to corn. Kind of assay: Test A preemergence. It is filed as in vivo, Zea mays. The note with it: Zea mays, pre-emergence, 240 h, 0 to 100 scale (0 no effect, 100 complete control); for Corn plant response rating (crop injury, 0 = no effect, 100 = complete kill) at 125 g/ha: 125 g ai/ha; for Corn plant response rating (crop injury, 0 = no effect, 100 = complete kill) at 500 g/ha: 500 g ai/ha, approx. 10 d. Summed up: (§1)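 For preemergence, seeds were sown in a loam soil-sand blend and given a directed soil spray of test chemical in a non-phytotoxic solvent mixture with surfactant. For postemergence, plants in pots of the same blend were sprayed with the same formulation at the one- to two-leaf stage, 2 to 10 cm tall.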

For assay [2], the system named is crabgrass, large. The experiment in a line: Test A preemergence. The note with it: Digitaria sanguinalis, pre-emergence, 240 h, 0 to 100 scale (0 no effect, 100 complete control), read-out: Plant response rating, Crabgrass, Large; for pest or weed control at 125 g/ha: 125 g ai/ha; for pest or weed control at 500 g/ha: 500 g ai/ha, approx. 10 d. It is filed as in vivo, Digitaria sanguinalis. In outline:
as §1

The subject of assay [3] is galium. The experiment in a line: Test C preemergence. In kind it is in vivo, Galium aparine. The note with it: for Plant response rating (scale of 0 to 100 where 0 is no effect and 100 is complete control): Galium, preemergence; for Galium plant response rating (0 to 100): Preemergence, visual rating after 13 to 15 d. The text has this:
(§2) Seeds of plant species selected from blackgrass (Alopecurus myosuroides), ryegrass, Italian (Italian ryegrass, Lolium multiflorum), wheat (winter wheat, Triticum aestivum), galium (catchweed bedstraw, Galium aparine), corn (Zea mays), crabgrass, large (large crabgrass, Digitaria sanguinalis), foxtail, giant, (giant foxtail, Setaria faberii), johnsongrass (Sorghum halepense), lambsquarters (Chenopodium album), morningglory (Ipomoea coccinea), nutsedge, yellow (yellow nutsedge, Cyperus esculentus), pigweed (Amaranthus retroflexus), ragweed (common ragweed, Ambrosia elatior), soybean (Glycine max), barnyardgrass (Echinochloa crus-galli), oilseed rape (Brassica napus), waterhemp (common waterhemp, Amaranthus rudis), and velvetleaf (Abutilon theophrasti) were planted into a blend of loam soil and sand and treated preemergence with test chemicals formulated in a non-phytotoxic solvent mixture which included a surfactant. At the same time, plants selected from these crop and weed species and also chickweed (common chickweed, Stellaria media), oat, wild (wild oat, Avena fatua), and kochia (Kochia scoparia), were planted in pots containing Sunshine Redi-Earth® planting medium comprising spaghnum peat moss, vermiculite, starter nutrients and dolomitic limestone and treated with postemergence applications of test chemicals formulated in the same manner. Plants ranged in height from 2 to 18 cm (1- to 4-leaf stage) for postemergence treatments. […] A dash (-) response means no test result.

Assay [4] has as its system soybean. The experiment in a line: Test C preemergence. The note with it: for Soybean plant response rating (0 to 100): Preemergence, visual rating after 13 to 15 d; for Plant response rating (scale of 0 to 100 where 0 is no effect and 100 is complete control): Soybean, preemergence, 250 g ai/ha. In kind it is in vivo, Glycine max.
Description: as §2

The subject of assay [5] is morningglory. The experiment in a line: Test C preemergence. In kind it is in vivo, Ipomoea coccinea. The note with it: for Plant response rating (scale of 0 to 100 where 0 is no effect and 100 is complete control): Morningglory, preemergence; for Morningglory plant response rating (0 to 100): Preemergence, visual rating after 13 to 15 d.
Description: as §2

For assay [6], the system named is foxtail, giant. The experiment in a line: Test C preemergence. It is filed as in vivo, Setaria faberii. The note with it: for Plant response rating (scale of 0 to 100 where 0 is no effect and 100 is complete control): Foxtail, Giant, preemergence; for Foxtail, Giant plant response rating (0 to 100): Preemergence, visual rating after 13 to 15 d.
Description: as §2

Take `Cn1nc(-c2ccc(F)cc2)nc1Oc1cccc(C(F)(F)F)c1` [Compound 5, 3-(4-fluorophenyl)-1-methyl-5-[3-(trifluoromethyl)phenoxy]-1H-1,2,4-triazole]: in assay [1], the Corn plant response rating (crop injury, 0 = no effect, 100 = complete kill) at 125 g/ha came to 0% and the Corn plant response rating (crop injury, 0 = no effect, 100 = complete kill) at 500 g/ha amounted to 0%. In assay [2], the pest or weed control at 125 g/ha is 70% and the pest or weed control at 500 g/ha was 100%.

On to `CCCc1nc(-c2ccc(F)cc2)nn1Cc1ccnc(C(F)(F)F)c1` [Compound 6, 4-[[3-(4-fluorophenyl)-5-propyl-1H-1,2,4-triazol-1-yl]methyl]-2-(trifluoromethyl)pyridine], for which the “Plant response rating (scale of 0 to 100 where 0 is no effect and 100 is complete control)” value in assay [3] (125 g ai/ha) came to 100; in assay [3] (250 g ai/ha), 100; in assay [4], 70; in assay [5] (125 g ai/ha), 75; in assay [5] (250 g ai/ha) it was 100; in assay [6] (125 g ai/ha), 100. Further, the “Plant response rating (scale of 0 to 100 where 0 is no effect and 100 is complete control)” value in assay [6] (250 g ai/ha) amounted to 100. For the same compound, the entries for the “Galium plant response rating (0 to 100)” value in assay [3] (31 g ai/ha) and in assay [3] (62 g ai/ha) were 90 and 98, respectively. For the same compound, the Corn plant response rating (crop injury, 0 = no effect, 100 = complete kill) at 125 g/ha in assay [1] was determined as 20%. In assay [1], this compound yielded a Corn plant response rating (crop injury, 0 = no effect, 100 = complete kill) at 500 g/ha of 30%. Further, the “Soybean plant response rating (0 to 100)” value in assay [4] (31 g ai/ha) and in assay [4] (62 g ai/ha) was 5 each time. In addition, the figures for the “Morningglory plant response rating (0 to 100)” value in assay [5] (31 g ai/ha) and in assay [5] (62 g ai/ha) were 45 and 60, respectively. For the same compound, the “Foxtail, Giant plant response rating (0 to 100)” value (“Foxtail … (0 to 100)” for short) in assay [6] (31 g ai/ha) and in assay [6] (62 g ai/ha) was 100 each time. Also, in assay [2], the pest or weed control at 125 g/ha amounted to 100%. Moreover, in assay [2], the pest or weed control at 500 g/ha is 100%.

`COc1nc(-c2ccc(F)cc2)nn1Cc1ccnc(C(F)(F)F)c1` [Compound 9, 4-[[3-(4-fluorophenyl)-5-methoxy-1H-1,2,4-triazol-1-yl]methyl]-2-(trifluoromethyl)pyridine]: the “Plant response rating (scale of 0 to 100 where 0 is no effect and 100 is complete control)” value in assay [3] (125 g ai/ha) was 90; in assay [3] (250 g ai/ha), 98; in assay [4], 40; in assay [5] (125 g ai/ha) it was 45; in assay [5] (250 g ai/ha) it was 90; in assay [6] (125 g ai/ha), 100. The “Plant response rating (scale of 0 to 100 where 0 is no effect and 100 is complete control)” value in assay [6] (250 g ai/ha) stood at 100. The “Galium plant response rating (0 to 100)” value in assay [3] (31 g ai/ha) and in assay [3] (62 g ai/ha) was 5 throughout. The same compound yielded a Corn plant response rating (crop injury, 0 = no effect, 100 = complete kill) at 125 g/ha in assay [1] of 0%. In assay [1], this compound showed a Corn plant response rating (crop injury, 0 = no effect, 100 = complete kill) at 500 g/ha of 40%. Further, the “Soybean plant response rating (0 to 100)” value in assay [4] (31 g ai/ha) and in assay [4] (62 g ai/ha) was 0 throughout. Besides, the “Morningglory plant response rating (0 to 100)” value in assay [5] (31 g ai/ha) was 5; in assay [5] (62 g ai/ha), 45. The “Foxtail … (0 to 100)” value in assay [6] (31 g ai/ha) is 80; in assay [6] (62 g ai/ha), 100. Moreover, the pest or weed control at 125 g/ha in assay [2] came to 100%. The pest or weed control at 500 g/ha in assay [2] was determined as 100%.

For the compound `Cn1nc(-c2ccc(F)cc2)nc1C(O)c1ccnc(C(F)(F)F)c1` (stereo not drawn) [Compound 14, α-[3-(4-fluorophenyl)-1-methyl-1H-1,2,4-triazol-5-yl]-2-(trifluoromethyl)-4-pyridinemethanol], in assay [1], the Corn plant response rating (crop injury, 0 = no effect, 100 = complete kill) at 125 g/ha is 0% and the Corn plant response rating (crop injury, 0 = no effect, 100 = complete kill) at 500 g/ha amounted to 0%. Besides, in assay [2], the pest or weed control at 125 g/ha amounted to 60% and the pest or weed control at 500 g/ha was determined as 100%.

In assay [1], `CCn1nc(-c2ccc(F)cc2)nc1C(O)c1ccnc(C(F)(F)F)c1` (stereo not drawn) [Compound 15, α-[1-Ethyl-3-(4-fluorophenyl)-1H-1,2,4-triazol-5-yl]-2-(trifluoromethyl)-4-pyridinemethanol] showed a Corn plant response rating (crop injury, 0 = no effect, 100 = complete kill) at 125 g/ha of 0% and a Corn plant response rating (crop injury, 0 = no effect, 100 = complete kill) at 500 g/ha of 0%. In assay [2], the pest or weed control at 125 g/ha turned out to be 10% and the pest or weed control at 500 g/ha came out at 30%.

In the case of `CCCn1nc(-c2ccc(F)cc2)nc1Cc1ccnc(C(F)(F)F)c1` [Compound 17, 4-[[3-(4-fluorophenyl)-1-propyl-1H-1,2,4-triazol-5-yl]methyl]-2-(trifluoromethyl)pyridine], in assay [1], the Corn plant response rating (crop injury, 0 = no effect, 100 = complete kill) at 125 g/ha was determined as 30% and the Corn plant response rating (crop injury, 0 = no effect, 100 = complete kill) at 500 g/ha turned out to be 40%. In assay [2], the pest or weed control at 125 g/ha is 100% and the pest or weed control at 500 g/ha worked out at 100%.

In the case of `CCn1nc(-c2ccc(F)cc2)nc1C(=O)c1ccnc(C(F)(F)F)c1` [Compound 19, [1-ethyl-3-(4-fluorophenyl)-1H-1,2,4-triazol-5-yl][2-(trifluoromethyl)-4-pyridinyl]methanone], in assay [1], the Corn plant response rating (crop injury, 0 = no effect, 100 = complete kill) at 125 g/ha was 0% and the Corn plant response rating (crop injury, 0 = no effect, 100 = complete kill) at 500 g/ha amounted to 0%. Moreover, in assay [2], the pest or weed control at 125 g/ha was determined as 0% and the pest or weed control at 500 g/ha amounted to 50%.

In the case of `CS(=O)(=O)c1nc(-c2ccc(F)cc2)nn1Cc1ccnc(C(F)(F)F)c1` [Compound 29, 4-[[3-(4-fluorophenyl)-5-(methylsulfonyl)-1H-1,2,4-triazole-1-yl]methyl]-2-(trifluoromethyl)pyridine], in assay [1], the Corn plant response rating (crop injury, 0 = no effect, 100 = complete kill) at 125 g/ha stood at 0% and the Corn plant response rating (crop injury, 0 = no effect, 100 = complete kill) at 500 g/ha worked out at 0%. Also, in assay [2], the pest or weed control at 125 g/ha stood at 0% and the pest or weed control at 500 g/ha stood at 0%.

In the case of `COc1nc(-c2ccccc2)nn1Cc1ccnc(C(F)(F)F)c1` [Compound 32], the “Plant response rating (scale of 0 to 100 where 0 is no effect and 100 is complete control)” value in assay [3] (125 g ai/ha) turned out to be 60; in assay [3] (250 g ai/ha) it was 80; in assay [4] it was 5; in assay [5] (125 g ai/ha), 5; in assay [5] (250 g ai/ha), 45; in assay [6] (125 g ai/ha), 85. For the same compound, in assay [6] (250 g ai/ha), the “Plant response rating (scale of 0 to 100 where 0 is no effect and 100 is complete control)” value is on record as 100. Besides, the “Galium plant response rating (0 to 100)” value in assay [3] (31 g ai/ha) and in assay [3] (62 g ai/ha) was 0 in each case. Also, the “Soybean plant response rating (0 to 100)” value in assay [4] (31 g ai/ha) and in assay [4] (62 g ai/ha) was 0 in each case. Moreover, the figures for the “Morningglory plant response rating (0 to 100)” value in assay [5] (31 g ai/ha) and in assay [5] (62 g ai/ha) were 0 and 5, respectively. Moreover, the entries for the “Foxtail … (0 to 100)” value in assay [6] (31 g ai/ha) and in assay [6] (62 g ai/ha) were 5 and 70, respectively.
